“And” between values parts separate entries of the source, which are not always exact repeats. Equal values may be shown once.
Assays:
[1] = biological target: T1, CRP (Homo sapiens, UniProt P02741); assay: Roche immunoturbidimetric assay: pure CRP; type: binding; set-up: The final concentrations were 0.73 μM native pentameric CRP; from tissue; details: pure CRP in TC buffer; read-out: IC50 (μM), SD; inhibition of Roche CRP immunoreactivity
T1 sequence (P02741 19-224): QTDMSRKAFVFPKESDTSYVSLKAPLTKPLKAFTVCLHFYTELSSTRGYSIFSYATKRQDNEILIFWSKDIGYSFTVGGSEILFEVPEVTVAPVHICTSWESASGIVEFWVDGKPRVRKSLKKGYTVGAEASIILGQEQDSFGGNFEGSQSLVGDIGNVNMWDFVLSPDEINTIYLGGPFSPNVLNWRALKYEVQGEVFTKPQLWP
Procedure: (i) Human CRP at ˜90 μg/ml (3.9 μM monomer or 0.78 μM pentamer) in TC buffer was prepared from a stock solution; a 75 μl aliquot was used in the assay.
(ii) Compounds were prepared from stock solutions at up to 10 mM in TC (labelled S1). They were serially diluted with TC buffer (100 μl ligand+200 μl TC) to provide up to 9 dilutions, S2-S10. A TC buffer control (S0) was included in each assay.
(iii) A 15 μl volume of each ligand solution was incubated with 75 μl of CRP for 1 h at 37° C. The final concentrations were CRP pentamer=0.73 μM, ligands S1-S10=625-0.03 μM, corresponding to ligand:CRP pentamer ratios of 853-0.04.
(iv) CRP concentrations were measured by the Roche microparticle-enhanced immunoturbidimetric assay (10) on the COBAS MIRA autoanalyser, and results expressed as a percentage of the CRP control.
(v) Data were plotted using Sigmaplot (V14) using the 4 parameter logistic curve y=min+(max−min)/(1+(x/EC50)^−Hill slope) to calculate EC50.
(vii) All compounds were assayed in comparison with a highly purified preparation of BPC8, that was prepared by Carbogen AMCIS AG, dissolved in sterile water and diluted into TC buffer as required.
The immunoturbidimetric CRP assay on the Roche COBAS MIRA Plus autoanalyser, utilises two different sized microparticles that are covalently coupled with two different monoclonal antibodies, which recognise different CRP epitopes. The assay was developed by Roche for clinical measurement of CRP serum and plasma with high sensitivity and a very wide dynamic range. Serendipitously, one of the two antibodies binds to an epitope present on the ligand binding B-face of CRP. Thus, when the binding pocket is occupied by ligand and, especially, when the B-face is occluded by the B-face to B-face interaction of two native CRP pentamers produced by cross linking via our unique bivalent ligands, the assay fails to detect the CRP. In contrast, the CRP is all detected and assayed normally by other assays that disrupt the crosslinking and/or use antibodies which recognise different, non-occluded, epitopes. Inhibition of CRP recognition in the Roche assay is thus a convenient tool to monitor the efficacy and potency of complex formation between our unique ligands and CRP.

[2] = biological target: T1, CRP; assay: In vivo clearance of CRP/ligand complexes generated in vivo in mice; set-up: The final concentrations were 0.73 μM native pentameric CRP; from tissue
Procedure: (i) Two groups of 8 wild-type C57BL/6 mice (male; 23-27 weeks old) were used: group 1 (control) and group 2 (treated).
(§1) (ii) Both groups of animals were given 200 μl of human CRP (5 mg/ml in azide-free TC buffer) subcutaneously on day 1.
(iii) On day 2 (+18 h), control animals were given a 200 μl intravenous bolus of TC buffer. Treated animals were given a 200 μl iv bolus of ligand (prepared at 5 mg/ml in TC buffer).
(iv) One timed blood sample and a terminal blood sample were collected from each mouse into heparinised tubes and weighed. This generated data in quadruplicate at 4 time points, normally 30, 60, 120 and 360 minutes.
(v) ^125I radiolabel was measured (Perkin Elmer Wizard; protocol #1) in whole blood to quantify total CRP. In some cases, electroimmunoassay as above was also used to determine total CRP concentration.
(vi) Plasma was prepared and free CRP determined by Roche immunoassay.
(§2) Subcutaneous injection of human CRP provided circulating CRP concentrations with which to test for effects of our ligands in vivo. (Table 4).

[3] = biological target: T1, CRP; assay: Size exclusion chromatography of CRP/ligand cross linking; type: binding; set-up: The final concentrations were 0.73 μM native pentameric CRP; from tissue; details: CRP/ligand complex re-chromatographed in absence of free ligand
Procedure: (i) Ligands were diluted to 0.5 mM in TC buffer from up to 10 mM stocks. Serial dilutions were prepared as required. […]
(iii) The complex was chromatographed on a Superdex200 column (10/300 GL; 24 ml bed volume), connected to the ÅKTA100 Explorer HPLC system, and equilibrated and eluted in TC buffer at 0.5 ml/min. Eluates were monitored at 280 nm and fractions (0.5 ml) collected as required.
Size exclusion chromatography on a Superdex 200 column equilibrated and eluted with TC buffer pH 8.0, and calibrated with standard globular marker proteins and with human CRP, the native CRP pentamer (Mr 115 kDa) eluted at 13.9 ml (range 13.7-14.0 ml, n=10).

[4] = biological target: T1, CRP; assay: In vivo clearance of preformed CRP/ligand complexes in mice; set-up: from tissue
Procedure: (i) CRP at 1 mg/ml in azide-free TC buffer (containing, in some experiments, ˜10^6 cpm/ml of ^125I-CRP) was incubated with a 5-fold molar excess of ligand. A control (ligand-free) sample was also prepared. Cross linking of CRP was confirmed by SEC in TC buffer of a small sample of complex.
(ii) Two groups of eight wild-type C57BL/6 mice (male; 23-27 weeks old) were used.
The complex or control (200 μl, 200 μg CRP) was injected into the tail vein of each mouse. A single timed collection of blood was taken from the tail vain of each mouse; a second terminal sample was also collected. This yielded 4 samples each at 30, 60, 120 and 180 min for control and treated groups.
(iii) Blood samples were weighed and CRP measured in the Roche assay and, in some cases by electroimmunoassay (4, 13). ^125I-CRP was measured by gamma counting (Perkin Elmer Wizard; protocol #1).
Complexes were prepared in vitro using ^125I-labelled CRP and an excess of ligand, and the mixture was then injected intravenously into mice. Clearance of CRP was monitored by counting of the ^125I-CRP tracer and stable CRP-ligand complexes were detected by lack of CRP detection in the Roche assay of the plasma samples. The formation of CRP/ligand complexes was confirmed by size exclusion chromatography before use in each in vivo experiment.

[5] = Circulating CRP concentrations after subcutaneous CRP in mice; type: in vivo; details: individual mice
Procedure: as §1, §2

[6] = biological target: T1, CRP; assay: MIRA immunoturbidimetric assay; type: binding; set-up: The final concentrations were 0.73 μM native pentameric CRP; from tissue
Excerpt: The CRP immunoturbidimetric assay on the Roche COBAS MIRA Plus autoanalyser, utilises two different sized latex particles that are covalently coupled with two different monoclonal antibodies with specificity for different CRP epitopes (10). The assay was validated by Roche for measurement of native pentameric CRP, for which it has high sensitivity and specificity and a high upper detection limit; it was calibrated against a standard produced in our laboratory. Serendipitously, one of the assay's antibodies binds to an epitope present on the ligand binding B face of CRP. […]
CRP concentrations were measured in the presence and absence of ligands by the COBAS MIRA autoanalyser. […] CRP concentration was determined spectrophotometrically (Beckman Coulter DU 650) in quartz cuvettes with a 1 cm light path, by measuring A280 after correction for absorbance at 320 nm (light scattering) and using the measured absorption coefficient A(1%, 1 cm)=17.5 for human CRP (7). […]
Data are expressed as measured CRP (mg/L) against final total ligand concentration (M) and were plotted using Sigmaplot (V14) using the 4 parameter logistic curve y=min+(max−min)/(1+(x/EC50)^−Hill slope) to calculate EC50. Where appropriate, samples were also measured in whole normal human serum following the addition of a known amount of human CRP. […]

Compound	IC50 [1]	Stable to rechromatography [3]	IC50 [6]	further results
O=C(O)C(NC(=O)[C@H]1CC[C@H](C(=O)NC(C(=O)O)[C@H]2CN3CCC2CC3)CC1)[C@H]1CN2CCC1CC2 (stereo partly drawn) [Compound P2B-H, 2-[[4-[[-carboxy-[(3R)-quinuclidin-3-yl]methyl]carbamoyl]cyclohexanecarbonyl]amino]-2-[(3R)-quinuclidin-3-yl]acetic acid]	0.6 µM	Yes	–	Time complex generated in vivo was partially stable [2]: at least 3 hours
O=C(NC([C@H]1CN2CCC1CC2)P(=O)(O)OCc1ccccc1)c1ccc(C(=O)NC([C@H]2CN3CCC2CC3)P(=O)(O)OCc2ccccc2)cc1 (some centres unmarked) [Compound P3A-C]	0.91 µM	–	–	Time complexes stable in vivo ([4]; complexes formed in vitro): at least 6 hours
CRP: Human C-reactive protein, isolated and purified, injected into mice	–	–	–	t1/2 of clearance of CRP ([4]; intravenous, 125I-CRP tracer): ~130 min; Circulating CRP concentration ([5]; 16 h after subcutaneous 1 mg CRP): 58.2 mg/L and 69.2 mg/L; Circulating CRP concentration ([5]; 18 h after subcutaneous 1 mg CRP): 44.0 mg/L and 57.2 mg/L; Circulating CRP concentration ([5]; 24 h after subcutaneous 1 mg CRP): 24.0 mg/L and 32.2 mg/L
O=C(NC(C(=O)O)[C@H]1CN2CCC1CC2)c1ccc(C(=O)NC(C(=O)O)[C@H]2CN3CCC2CC3)cc1 (stereo partly drawn) [Compound P2B-B, (R,2R,2′R)-2,2′-(terephthaloylbis(azanediyl))bis(2-((R)-quinuclidin-3-yl)acetic acid)]	0.64 ± 0.17 µM	Yes	0.6 µM	Time CRP:ligand complex generated in vivo was stable [2]: at least 1 hour
O=C(NC(C(=O)O)[C@H]1CN2CCC1CC2)c1cccc(C(=O)NC(C(=O)O)[C@H]2CN3CCC2CC3)c1 (stereo partly drawn) [Compound P2B-E, 2-[[3-[[carboxy-[(3R)-quinuclidin-3-yl]methyl]carbamoyl]benzoyl]amino]-2-[(3R)-quinuclidin-3-yl]acetic acid]	–	–	2.02 µM	–

Reference: patent publication US20230118142A1, “AGENTS FOR USE IN THE TREATMENT OF TISSUE DAMAGE” (UCL BUSINESS LTD, priority 2020, published 2023)
